Patent US20260315563A1, “A NOVEL MENTHOL-EUCALYPTUS OIL ANTITUSSIVE SPRAY AND USE THEREOF” (SINO-SHINE BIOPHARMACEUTICAL CO.,LTD, priority 2023, published 2026)
Several values for one entry are separate records, joined by “and”; a condition that tells them apart may be missing. Equal values may be shown once. Entries after “also recorded” stand apart in the source; their conditions may differ. Where a name gives a salt, the structure may show the parent alone.

Assays:
TRPV1 = details: in vivo; cited from earlier work
[1] = tested on: cough induction using LPS and citric acid; assay: Animal Experiment 2: antitussive effect in LPS-citric acid cough model (inflammatory cough), guinea pigs; assay type: in vivo; details: for Cough Frequency / Cough Frequency Suppression Rate, Actual Value / Cough Latency: LPS + 0.2 M citric acid
Protocol: 160 guinea pigs, 250 g to 300 g each, half-male and half-female, certificate number 20220908Cdzz0412999409, were purchased from Xinjian Rabbit Farm, Dashiju Town, Xinchang County. The animals were reared at the general laboratory facility with 40% to 60% of humidity, and provided with a cycle of 12 h in the dark and 12 h in light. The animals could freely access to water and food. All operations and experimental procedures complied with the “Regulations on Animal Experiment Management.” • Production license: SCXK (Zhejiang) 2020-0005 • Application license: SCXK (Zhejiang) 2021-0019
Currently, there are barely reports on the models of inflammatory coughs in China and other countries. To closely mimic the occurrence of actual coughs in people suffering from acute respiratory infection, a novel inflammatory cough model was explored ahead of the projected experiments. This novel model was based on the citric acid-induced cough model, but the animals were subject to a LPS pretreatment before beginning with the cough provocation of citric acid.
After 5 days of adaptive feeding, the animal was individually placed in a glass bell jar to allow adaptation for 1 min, and then administrated with the compressed aerosol of 0.4 M citric acid solution (instead of physiological saline for the blank control group) for 10 min. The frequency of cough was recorded during administration of the citric acid aerosol. The guinea pigs with a cough frequency of 10-30 were retained for the formal experiments later. The qualified guinea pigs were randomly divided into the corresponding groups (not fewer than 8 in each group) and were subjected to test the inhalation of the nebulized solvent, menthol, eucalyptus oil, or a combination of menthol and eucalyptus oil for 10 min. After an interval of 15 min post inhalation of the test drug, the animals were administered with the aerosol of 1 mg/mL LPS. 4 hours post the LPS nebulization, the animals were subjected to the second inhalation of the nebulized solvent, menthol, eucalyptus oil, or the combination of menthol and eucalyptus oil for 10 min. Fifteen minutes later, the aerosol of 0.2 M citric acid was administered for cough induction, and the process was recorded by video during the inhalation of citric acid. The duration from the inhalation of the nebulized citric acid to the emergence of first cough was designated as the latency. The control group used solvent for nebulization and cough evoking.
• (1) 0.4 M citric acid: Citric acid was accurately weighed, added into an appropriate volume of pure water to make a final concentration of 0.4 mol/L, and completely dissolved by sonication. • (2) 0.2 M citric acid: Citric acid was accurately weighed, added into an appropriate volume of pure water to make a final concentration of 0.2 mol/L, and completely dissolved by sonication. • (3) Codeine: Codeine was accurately weighed, placed in a mortar and grounded repeatedly, added into an appropriate amount of physiological saline and completely dissolved by sonication. • (4) LPS preparation: LPS was accurately weighed, added into an appropriate amount of physiological saline to make a final concentration of 1 mg/mL, and completely dissolved by vortexing. • (5) Preparations of testing drugs: Initially, 4 g of menthol was dissolved in 10 mL of olive oil (menthol group), or 0.45 mL of eucalyptus oil was sufficiently mixed with 9.55 mL of olive oil (eucalyptus oil group). Afterwards, 5 g of soybean lecithin (previously cut into small pieces) was added to 10 mL of olive oil (control group) or each of the drug groups above, and dissolved by slowly stirring to form a uniform oil phase at 42° C. in a water bath. Further, double distilled water was slowly added to each group in oil phase on a magnetic stirrer and fully emulsified by sufficiently stirring to mix the oil phase with water. […]

[2] = tested on: sodium citrate-evoked coughs; assay: Animal Experiment 1: antitussive effect in sodium citrate (citric acid)-evoked cough, guinea pigs; assay type: in vivo; details: for Cough Frequency / Cough Latency / Inhibition Rate of Cough: nebulization 10 min, 0.4 M citric acid; for Inhibition Rate of Cough: original model
Protocol: 100 guinea pigs, 250 g to 300 g each, half-male and half-female, were purchased from Beijing Vital River Experimental Animal Technology Co., Ltd., referred to Certificate Numbers 110011220104932418, 110011220104932542. The animals were reared at the general laboratory facility with 40% to 60% of humidity, and provided with a cycle of light: 12 h in dark and 12 h in light. The animals could freely access to water and food. All operations and experimental procedures complied with the “Regulations on Animal Experiment Management.”
At the initial screening step, each guinea pig was individually placed in a glass bell jar to allow adaptation for 1 min and then administered with a compressed aerosol of 0.4 M citric acid solution (instead of physiological saline for the blank control group) for 10 min. The frequency of cough was recorded during administration of the aerosol. The guinea pigs with a cough frequency of 10-30 were retained for the formal experiments later. The qualified guinea pigs were randomly divided into the corresponding groups (not fewer than 10 in each group) and were subjected to test the inhalation of the nebulized solvent, menthol, eucalyptus oil, or a combination of menthol and eucalyptus oil for 10 min. After an interval of 10 min post-inhalation of the test drug, 0.4 M citric acid solution was nebulized and given for inhalation, and the cough frequency was recorded by video from the beginning to the end of the administration of citric acid aerosol. The latency of cough is defined as the period from the inhalation of nebulized citric acid to the appearance of the first cough. The videos were recorded during the period of cough provocation in the experiment.
• (1) 0.4 M sodium citrate: Sodium citrate was accurately weighed, added into an appropriate volume of pure water, completely dissolved by sonication, and finally diluted to 0.4 M for use later. • (2) Codeine: Codeine was accurately weighed, grounded sufficiently in a mortar, transferred into an appropriate amount of physiological saline, and dissolved by sonication. • (3) Preparations of testing drugs: Initially, an oil phase was prepared by dissolving 2 g of menthol in 10 mL of olive oil (menthol group); or well mixing 3.6 mL of eucalyptus oil with 6.4 mL of olive oil (eucalyptus oil group); or adding 2 g of menthol and 3.6 mL of eucalyptus oil/0.6 g of menthol and 3.6 mL of eucalyptus oil/2 g of menthol and 1.2 mL of eucalyptus oil respectively in a corresponding volume of olive oil to make a final 10 mL solution (menthol+eucalyptus oil groups). Afterwards, 5 g of soybean lecithin (cut into small pieces beforehand) was added to 10 mL of olive oil (control group) or each of the drug groups above and dissolved by slowly stirring to form a uniform oil phase at 42° C. in a water bath. Further, double distilled water was slowly added to each group in oil phase on a magnetic stirrer and fully emulsified by sufficiently stirring to mix the oil phase with water. A final emulsion was prepared in a volume of 100 mL and could be further diluted to make a working preparation with the specific concentration of drug (or drugs).
All experimental data were expressed as mean±SEM, and the data-processing software SSPS16.0 was used to conduct the analysis of variance and inter-group t-test. The conclusions were made by comprehensively analyzing all data.

coughs = details: in vivo; cited from earlier work
[3] = tested on: inflammatory factors, such as leukotriene B4 (LTB4), prostaglandin (PGE2), and a variety of cytokines; details: cited from earlier work
asthma = details: clinical trials for asthma; cited from earlier work
[4] = tested on: capsaicin-guinea pig model; details: cited from earlier work
TRPM8 = details: cooling effect; membrane potential depolarization and Ca2+ influx; cited from earlier work
[5] = 2% menthol, 3.6% eucalyptus oil, combinations, or 30 mg/mL codeine phosphate, P<0.01

## COc1cc(CNC(=O)CCCC/C=C/C(C)C)ccc1O [Capsaicin]
TRPV1
  Cough induction by TRPV1 agonists (in words): evoke coughs in humans and guinea pigs

## O=C(O)CC(O)(CC(=O)O)C(=O)O [Citric acid]
[1]; 0.2 M citric acid after LPS, P<0.01 vs blank control
  Cough induction (in words): significantly induce coughs

## COc1ccc2c3c1O[C@H]1[C@@H](O)C=C[C@H]4[C@@H](C2)N(C)CC[C@@]341 [Codeine phosphate]
[2]; 30 mg/mL codeine phosphate
  Cough Frequency: 7.90 ± 1.61 times
  Cough Latency: 158.30 ± 17.46 s
  Inhibition Rate of Cough: 57.30 ± 8.70 %
[1]; 30 mg/mL codeine
  Cough Frequency: 8.44 ± 0.71
  Cough Frequency Suppression Rate, Actual Value: 55.29 ± 3.86 %
  Cough Latency: 134.78 ± 9.72 s

## CC12CCC(CC1)C(C)(C)O2 [Eucalyptol, 1,8-Cineol]
coughs
  Antitussive effect in human clinical trials (in words): proven to have anti-inflammatory and antitussive effects in clinical trials; also recorded: confirmed in clinical trials
[3]
  Anti-inflammatory effect (in words): effective anti-inflammatory agent
asthma
  Replacement of glucocorticoids in asthma (in words): partially replace the use of glucocorticoids

## CC(C)[C@@H]1CC[C@@H](C)C[C@H]1O [Menthol, L-1-methyl-4-isopropylcyclohexan-3-ol]
[2]; [5]
  Effect on frequency of coughs / antitussive effect (in words): reduced the frequency of coughs; also recorded: reduced the cough frequency; also recorded: show antitussive effects
  Effect on latency of coughs (in words): significantly increased the cough latency
[2]; 2% menthol
  Cough Frequency: 11.58 ± 1.72 times
  Cough Latency: 155.50 ± 20.43 s
  Inhibition Rate of Cough: 37.39 ± 9.30%
[2]; 2% menthol, listed as menthol
  Inhibition Rate of Cough: 37.39% and 37.39 ± 9.30 %
coughs
  Antitussive effect in human clinical trials (in words): well verified in human clinical trials
[4]
  Antitussive effect on capsaicin-evoked coughs (in words): effectively suppress coughs; also recorded: significantly suppressed
TRPM8
  Activation of TRPM8 (in words): Activation of TRPM8
[1]; 0.06% menthol
  Cough Frequency: 16.50 ± 1.78
  Cough Frequency Suppression Rate, Actual Value: 12.65 ± 9.44%
  Cough Latency: 104.88 ± 10.85 s
[1]; 0.25% menthol
  Cough Frequency: 14.88 ± 1.90
  Cough Frequency Suppression Rate, Actual Value: 21.25 ± 10.08%
  Cough Latency: 88.75 ± 15.96 s
[1]; 1.0% and 4% menthol, 0.15% and 0.45% eucalyptus oil, P<0.01-0.05
  Statistical significance of cough suppression (in words): statistical significance; also recorded: statistically attained the significance in cough suppression
[1]; 1.0% menthol
  Cough Frequency: 13.13 ± 0.55
  Cough Frequency Suppression Rate, Actual Value: 28.53 ± 3.00%
  Cough Latency: 116.38 ± 11.30 s
[1]; 1.0% menthol, listed as menthol
  Cough Frequency Suppression Rate, Actual Value: 28.53 ± 3.00 %
[1]; 4.0% menthol
  Cough Frequency: 11.38 ± 0.82
  Cough Frequency Suppression Rate, Actual Value: 39.78 ± 4.35%
  Cough Latency: 128.13 ± 13.84 s
[1]; 4.0% menthol, listed as menthol
  Cough Frequency Suppression Rate, Actual Value: 39.78% and 39.78 ± 4.35 %
[1]; menthol 0.06-4%, eucalyptus oil 0.05-0.45%, combinations 0.06-1.0% + 0.05-0.15%, codeine 30 mg/mL
  Effect on frequency of coughs (in words): reduce the frequency of coughs in a dose-dependent manner
[1]; novel LPS-citric acid model vs original citric acid model
  Efficacy on inflammatory coughs compared with original model (in words): reduced; also recorded: better activities on non-inflammatory coughs; also recorded: declined

## O=C(O)CC(O)(CC(=O)O)C(=O)O [Sodium citrate]
[2]; 0.4 M sodium citrate, P<0.01 vs control
  Cough induction (in words): significantly evoke coughing in guinea pigs
TRPV1
  Cough induction by TRPV1 agonists (in words): evoke coughs in humans and guinea pigs
